Results as given in the NIST ThermoML archive (doi:10.1016/j.tca.2015.03.003).

Experiment: molar heat capacity at constant pressure; xn = mol fraction of the nth substance listed
Details: 100 kPa, Small sample (50 mg) DSC

[Cl-].[K+] [potassium chloride] + [Cl-].[Na+]
Details | molar heat capacity at constant pressure [J/K/mol]
298.15 K, Crystal of unknown type, x1 = 0.1 | 48.78
298.15 K, Crystal of unknown type, x1 = 0.2 | 51.33
298.15 K, Crystal of unknown type, x1 = 0.3 | 49.46
298.15 K, Crystal of unknown type, x1 = 0.4 | 50.77
298.15 K, Crystal of unknown type, x1 = 0.5 | 51.13
298.15 K, Crystal of unknown type, x1 = 0.6 | 48.93
298.15 K, Crystal of unknown type, x1 = 0.7 | 50.73
298.15 K, Crystal of unknown type, x1 = 0.75 | 50.05
298.15 K, Crystal of unknown type, x1 = 0.8 | 50.46
300 K, Crystal of unknown type, x1 = 0.1 | 48.81
300 K, Crystal of unknown type, x1 = 0.2 | 51.36
300 K, Crystal of unknown type, x1 = 0.3 | 49.49
300 K, Crystal of unknown type, x1 = 0.4 | 50.8
300 K, Crystal of unknown type, x1 = 0.5 | 51.16
300 K, Crystal of unknown type, x1 = 0.6 | 48.96
300 K, Crystal of unknown type, x1 = 0.7 | 50.76
300 K, Crystal of unknown type, x1 = 0.75 | 50.07
300 K, Crystal of unknown type, x1 = 0.8 | 50.47
350 K, Crystal of unknown type, x1 = 0.1 | 49.61
350 K, Crystal of unknown type, x1 = 0.2 | 52.11
350 K, Crystal of unknown type, x1 = 0.3 | 50.24
350 K, Crystal of unknown type, x1 = 0.4 | 51.4
350 K, Crystal of unknown type, x1 = 0.5 | 51.77
350 K, Crystal of unknown type, x1 = 0.6 | 49.81
350 K, Crystal of unknown type, x1 = 0.7 | 51.51
350 K, Crystal of unknown type, x1 = 0.75 | 50.42
350 K, Crystal of unknown type, x1 = 0.8 | 50.87
400 K, Crystal of unknown type, x1 = 0.1 | 50.41
400 K, Crystal of unknown type, x1 = 0.2 | 52.86
400 K, Crystal of unknown type, x1 = 0.3 | 50.99
400 K, Crystal of unknown type, x1 = 0.4 | 52
400 K, Crystal of unknown type, x1 = 0.5 | 52.39
400 K, Crystal of unknown type, x1 = 0.6 | 50.66
400 K, Crystal of unknown type, x1 = 0.7 | 52.26
400 K, Crystal of unknown type, x1 = 0.75 | 50.77
400 K, Crystal of unknown type, x1 = 0.8 | 51.27
450 K, Crystal of unknown type, x1 = 0.1 | 51.21
450 K, Crystal of unknown type, x1 = 0.2 | 53.61
450 K, Crystal of unknown type, x1 = 0.3 | 51.74
450 K, Crystal of unknown type, x1 = 0.4 | 52.6
450 K, Crystal of unknown type, x1 = 0.5 | 53.01
450 K, Crystal of unknown type, x1 = 0.6 | 51.51
450 K, Crystal of unknown type, x1 = 0.7 | 53.01
450 K, Crystal of unknown type, x1 = 0.75 | 51.12
450 K, Crystal of unknown type, x1 = 0.8 | 51.67
470 K, Crystal of unknown type, x1 = 0.1 | 51.53
470 K, Crystal of unknown type, x1 = 0.2 | 53.91
470 K, Crystal of unknown type, x1 = 0.3 | 52.04
470 K, Crystal of unknown type, x1 = 0.4 | 52.84
470 K, Crystal of unknown type, x1 = 0.5 | 53.25
470 K, Crystal of unknown type, x1 = 0.6 | 51.85
470 K, Crystal of unknown type, x1 = 0.7 | 53.31
470 K, Crystal of unknown type, x1 = 0.75 | 51.26
470 K, Crystal of unknown type, x1 = 0.8 | 51.83
500 K, Crystal of unknown type, x1 = 0.1 | 52.01
500 K, Crystal of unknown type, x1 = 0.2 | 54.36
500 K, Crystal of unknown type, x1 = 0.3 | 52.49
500 K, Crystal of unknown type, x1 = 0.4 | 53.2
500 K, Crystal of unknown type, x1 = 0.5 | 53.63
500 K, Crystal of unknown type, x1 = 0.6 | 52.36
500 K, Crystal of unknown type, x1 = 0.7 | 53.76
500 K, Crystal of unknown type, x1 = 0.75 | 51.47
500 K, Crystal of unknown type, x1 = 0.8 | 52.07
550 K, Crystal of unknown type, x1 = 0.1 | 52.81
550 K, Crystal of unknown type, x1 = 0.2 | 55.11
550 K, Crystal of unknown type, x1 = 0.3 | 53.24
550 K, Crystal of unknown type, x1 = 0.4 | 53.8
550 K, Crystal of unknown type, x1 = 0.5 | 54.24
550 K, Crystal of unknown type, x1 = 0.6 | 53.21
550 K, Crystal of unknown type, x1 = 0.7 | 54.51
550 K, Crystal of unknown type, x1 = 0.75 | 51.82
550 K, Crystal of unknown type, x1 = 0.8 | 52.47
600 K, Crystal of unknown type, x1 = 0.1 | 53.61
600 K, Crystal of unknown type, x1 = 0.2 | 55.86
600 K, Crystal of unknown type, x1 = 0.3 | 53.99
600 K, Crystal of unknown type, x1 = 0.4 | 54.4
600 K, Crystal of unknown type, x1 = 0.5 | 54.86
600 K, Crystal of unknown type, x1 = 0.6 | 54.06
600 K, Crystal of unknown type, x1 = 0.7 | 55.26
600 K, Crystal of unknown type, x1 = 0.75 | 52.17
600 K, Crystal of unknown type, x1 = 0.8 | 52.87
635 K, Crystal of unknown type, x1 = 0.8 | 53.15
635 K, Crystal, x1 = 0.8 | 52.52
650 K, Crystal of unknown type, x1 = 0.1 | 54.41
650 K, Crystal of unknown type, x1 = 0.2 | 56.61
650 K, Crystal of unknown type, x1 = 0.3 | 54.74
650 K, Crystal of unknown type, x1 = 0.4 | 55
650 K, Crystal of unknown type, x1 = 0.5 | 55.48
650 K, Crystal of unknown type, x1 = 0.6 | 54.91
650 K, Crystal of unknown type, x1 = 0.7 | 56.01
650 K, Crystal of unknown type, x1 = 0.75 | 52.52
650 K, Crystal, x1 = 0.8 | 52.97
683 K, Crystal of unknown type, x1 = 0.75 | 52.75
683 K, Crystal, x1 = 0.75 | 55.25
687 K, Crystal of unknown type, x1 = 0.7 | 56.56
687 K, Crystal, x1 = 0.7 | 53.53
700 K, Crystal of unknown type, x1 = 0.1 | 55.21
700 K, Crystal of unknown type, x1 = 0.2 | 57.36
700 K, Crystal of unknown type, x1 = 0.3 | 55.49
700 K, Crystal of unknown type, x1 = 0.4 | 55.6
700 K, Crystal of unknown type, x1 = 0.5 | 56.1
700 K, Crystal of unknown type, x1 = 0.6 | 55.76
700 K, Crystal, x1 = 0.7 | 54.17
700 K, Crystal, x1 = 0.75 | 56.4
700 K, Crystal, x1 = 0.8 | 54.47
733 K, Crystal of unknown type, x1 = 0.6 | 56.32
733 K, Crystal, x1 = 0.6 | 56.77
739 K, Crystal of unknown type, x1 = 0.1 | 55.83
739 K, Crystal, x1 = 0.1 | 55.59
750 K, Crystal of unknown type, x1 = 0.2 | 58.11
750 K, Crystal of unknown type, x1 = 0.3 | 56.24
750 K, Crystal of unknown type, x1 = 0.4 | 56.2
750 K, Crystal of unknown type, x1 = 0.5 | 56.71
750 K, Crystal, x1 = 0.1 | 55.9
750 K, Crystal, x1 = 0.6 | 57.39
750 K, Crystal, x1 = 0.7 | 56.62
750 K, Crystal, x1 = 0.75 | 59.8
750 K, Crystal, x1 = 0.8 | 55.97
753 K, Crystal of unknown type, x1 = 0.2 | 58.15
753 K, Crystal, x1 = 0.2 | 59.47
757 K, Crystal of unknown type, x1 = 0.5 | 56.8
757 K, Crystal, x1 = 0.5 | 57.77
769 K, Crystal of unknown type, x1 = 0.4 | 56.42
769 K, Crystal, x1 = 0.4 | 56.84
771 K, Crystal of unknown type, x1 = 0.3 | 56.56
771 K, Crystal, x1 = 0.3 | 57.44
800 K, Crystal, x1 = 0.1 | 57.3
800 K, Crystal, x1 = 0.2 | 61.35
800 K, Crystal, x1 = 0.3 | 58.49
800 K, Crystal, x1 = 0.4 | 58.24
800 K, Crystal, x1 = 0.5 | 59.38
800 K, Crystal, x1 = 0.6 | 59.19
800 K, Crystal, x1 = 0.7 | 59.07
800 K, Crystal, x1 = 0.75 | 63.2
800 K, Crystal, x1 = 0.8 | 57.47
850 K, Crystal, x1 = 0.1 | 58.7
850 K, Crystal, x1 = 0.2 | 63.35
850 K, Crystal, x1 = 0.3 | 60.29
850 K, Crystal, x1 = 0.4 | 60.49
850 K, Crystal, x1 = 0.5 | 61.26
850 K, Crystal, x1 = 0.6 | 60.99
850 K, Crystal, x1 = 0.7 | 61.52
850 K, Crystal, x1 = 0.75 | 66.6
850 K, Crystal, x1 = 0.8 | 58.97
900 K, Crystal, x1 = 0.1 | 60.1
900 K, Crystal, x1 = 0.2 | 65.35
900 K, Crystal, x1 = 0.3 | 62.09
900 K, Crystal, x1 = 0.4 | 62.74
900 K, Crystal, x1 = 0.5 | 63.13
900 K, Crystal, x1 = 0.6 | 62.79
900 K, Crystal, x1 = 0.7 | 63.97
900 K, Crystal, x1 = 0.75 | 70
900 K, Crystal, x1 = 0.8 | 60.47
930 K, Crystal, x1 = 0.5 | 64.25
930 K, Liquid, x1 = 0.5 | 81.03
950 K, Liquid, x1 = 0.5 | 82.5
1000 K, Liquid, x1 = 0.5 | 86.19
1050 K, Liquid, x1 = 0.5 | 89.88
1100 K, Liquid, x1 = 0.5 | 93.56
